Assay results from patent US9822138B2, “Antiviral beta-amino acid ester phosphodiamide compounds” (Merck Sharp & Dohme Corp., priority 2015, dated 2017).
Where two headings read alike, the source gives them in different places.

Key:
HIV-1 (H9/IIIB strain) = test: microbe, parasite or virus in culture; type: cell-based; details: MT4-GFP cells infected with HIV-1 H9/IIIB, inhibition of reproductive ratio R0
Procedure: Assessing Antiviral Potency in a Multiple Round HIV-1 Infection Assay (Viking Assay)
The antiviral activity of the tenofovir prodrugs of the Examples herein was assessed in an assay that measures the rate of replication of HIV in cell culture, termed the Viking assay (Viral KINetics in Green cells) and performed as follows. HIV-1 replication was monitored using MT4-gag-GFP clone D3 (hereafter designated MT4-GFP), which are MT-4 cells modified to harbor a GFP reporter gene, the expression of which is dependent on the HIV-1 expressed proteins tat and rev. Productive infection of an MT4-GFP cell with HIV-1 results in GFP expression approximately 24 h post-infection. MT4-GFP cells were maintained at 37° C./5% CO2/90% relative humidity in RPMI 1640 supplemented with 10% fetal bovine serum, 100 U/ml penicillin/streptomycin, and 400 μg/ml G418 to maintain the reporter gene. For infections, MT4-GFP cells were placed in the same medium lacking G418 and infected overnight with HIV-1 (H9/IIIB strain) virus at an approximate multiplicity of infection of 0.01 in the same incubation conditions. Cells were then washed and re-suspended in either RPMI 1640 supplemented with 10% or 50% normal human serum (NHS) at 1.6×10^5 cells/mL (10% NHS or 50% NHS, respectively). Compound plates were prepared by dispensing compounds dissolved in DMSO into wells of 384 well poly-D-lysine-coated plates (0.2 μl/well) using an ECHO acoustic dispenser. Each compound was tested in a 10-point serial 3-fold dilution (typical final concentrations: 8.4 μM-0.42 nM). Controls included no inhibitor (DMSO only) and a combination of three antiviral agents (efavirenz, indinavir, an in-house integrase strand transfer inhibitor at final concentrations of 4 μM each). Cells were added ([…]) to compound plates and the infected cells were maintained at 37° C./5% CO2/90% relative humidity.
Infected cells were quantified at two time points, ˜48 h and ˜72 h post-infection, by counting the number of green cells in each well using an Acumen eX3 scanner. […] Inhibition of R0 is calculated for each well, and IC50s determined by non-linear 4-parameter curve fitting.

[1] = Prodrug stability assay in bio-relevant media (FaSSIF with pancreatin; GI tract stability); type: in vitro ADME; details: parent prodrug area at 5 h divided by area at 0 h; 37° C.; 0.5 mg/mL pancreatin in FaSSIF
Procedure: Prodrug Stability Assay in Bio-Relevant Media
The following assay was employed to evaluate the stability of the prodrugs in simulated gastrointestinal tract conditions. Preparation of fasted state simulated intestinal fluid (FaSSIF) using Phares SIF Powder was carried out according to protocols from Phare Drug Delivery AG (Baselland, Switzerland). For sample preparation, 10 μL stock solutions (10 mM) of prodrug substance in DMSO was added to 990 μL of 0.5 mg/mL Pancreatin solution (Fisher CAS#8049-47-6) in FaSSIF. Two samples were prepared for each compound at initial. If the sample was clear solution at the beginning, ran one sample directly as initial by HPLC; if the sample was not clear at starting, diluted the sample by 100% ACN. Put the other sample under 37° C. and observed the sample at 5 h time-point. At 5 h time point, if the sample was clear solution then performed HPLC analysis directly; if it was not clear solution, diluted the sample by 100% ACN and assayed by HPLC. All the samples were vortexed for 3 min and observed before injection. For the diluted samples, the area will be multiplied by a factor when data analysis. The analysis was carried out with an Agilent 1100 series HPLC with autosampler. The column was usually a Poroshell 120 EC-C18, 4.6×50 mm, 2.7 μm. The flow rate was 1.8 mL/min, and the injection volume was 5 or 10 μL. UV detection was in the range 210-400 nm. The mobile phase consisted of solvent A (water plus 10 mM tetrabutylammonium bromide) and solvent B (acetonitrile) with a gradient of 90% solvent A at 0 min changing to 95% solvent B over 6 min, maintained for 1.5 min, then reverting to 90% solvent A over 1.6 min. The area of the parent in prodrug at 5 h time point was divided by the area of the parent in prodrug at 0 h time point, to generate the % claimed parent ratio, which are summarized in Table 5 for GI Tract stability.

[2] = Human immunodeficiency virus 1, 10% normal human serum, read-out: Viking, IC50 (10% NHS)
[3] = Human immunodeficiency virus 1, 50% normal human serum, read-out: Viking, IC50 (50% NHS)
[4] = 10% normal human serum, read-out: Viking, IC50 (10% NHS)
[5] = 50% normal human serum, read-out: Viking, IC50 (50% NHS)
[6] = Human immunodeficiency virus 1, IIIB, 10% normal human serum, read-out: Viking, IC50 (10% NHS)
[7] = Human immunodeficiency virus 1, IIIB, 50% normal human serum, read-out: Viking, IC50 (50% NHS)

SMILES	GI Tract stability [1] [%]	IC50 (HIV-1 (H9/IIIB strain); [2]) [nM]	IC50 (HIV-1 (H9/IIIB strain); [3]) [nM]	IC50 (HIV-1 (H9/IIIB strain); [4]) [nM]	IC50 (HIV-1 (H9/IIIB strain); [5]) [nM]	IC50 (HIV-1 (H9/IIIB strain); [6]) [nM]	IC50 (HIV-1 (H9/IIIB strain); [7]) [nM]
CC(C)OC(=O)CCNP(=O)(CO[C@H](C)Cn1cnc2c(N)ncnc21)N[C@@H](C)C(=O)OC(C)C (single isomer, unassigned) [Example 7A]	98.7	26.4	44.1	–	–	–	–
CC(C)OC(=O)C[C@H](C)NP(=O)(CO[C@H](C)Cn1cnc2c(N)ncnc21)N[C@@H](C)C(=O)OC(C)C (single isomer, unassigned) [Example 8A]	89.5	–	–	26.5	38.2	–	–
CC(C)OC(=O)C[C@@H](C)NP(=O)(CO[C@H](C)Cn1cnc2c(N)ncnc21)N[C@@H](C)C(=O)OC(C)C (single isomer, unassigned) [Example 9A]	99.6	–	–	25.3	66.7	–	–
CCCCCOC(=O)[C@H](C)NP(=O)(CO[C@H](C)Cn1cnc2c(N)ncnc21)NC[C@H](C)C(=O)OC(C)C (single isomer, unassigned) [Example 16A]	12.7	–	–	–	–	6.1	18.6
CCCCCCCOC(=O)[C@H](C)NP(=O)(CO[C@H](C)Cn1cnc2c(N)ncnc21)NC[C@H](C)C(=O)OC(C)C (single isomer, unassigned) [Example 17A]	30.5	–	–	6.5	43	–	–
CCCCCCCOC(=O)[C@H](C)NP(=O)(CO[C@H](C)Cn1cnc2c(N)ncnc21)NC[C@H](C)C(=O)OC(C)C (single isomer, unassigned) [Example 17B]	0	–	–	2.2	12	–	–
CC(C)OC(=O)C[C@@H](C)NP(=O)(CO[C@H](C)Cn1cnc2c(N)ncnc21)N[C@H](C)C(=O)OC1CCC1 (single isomer, unassigned) [Example 18A]	99.2	65	134	–	–	–	–
CCCCCOC(=O)C(C)(C)N[P@](=O)(CO[C@H](C)Cn1cnc2c(N)ncnc21)N[C@@H](CC(=O)OC(C)C)C(C)C (single isomer, unassigned) [Example 24A]	76	0.8	4.4	–	–	–	–
CC(C)OC(=O)C[C@H](N[P@@](=O)(CO[C@H](C)Cn1cnc2c(N)ncnc21)NC(C)(C)C(=O)OC(C)C)C(C)C (single isomer, unassigned) [Example 25A]	99.0	4.7	12	–	–	–	–
CCCCCOC(=O)C(C)(C)NP(=O)(CO[C@H](C)Cn1cnc2c(N)ncnc21)N[C@@H](C)CC(=O)OC(C)C (single isomer, unassigned) [Example 26B]	96.9	–	–	1.5	6.8	–	–
CCCCCCOC(=O)C(C)(C)NP(=O)(CO[C@H](C)Cn1cnc2c(N)ncnc21)N[C@@H](CC(=O)OC(C)C)C(C)C (single isomer, unassigned) [Example 28B]	83	–	–	2.1	5.7	–	–
CC(C)OC(=O)C[C@H](N[P@](=O)(CO[C@H](C)Cn1cnc2c(N)ncnc21)NC(C)(C)C(=O)OC(C)C)C(C)C [Example 25B]	100	590	> 2000	–	–	–	–

Continued, in another order:

GI Tract stability [1] [%]	SMILES	IC50 (HIV-1 (H9/IIIB strain); [2]) [nM]	IC50 (HIV-1 (H9/IIIB strain); [3]) [nM]	IC50 (HIV-1 (H9/IIIB strain); [4]) [nM]	IC50 (HIV-1 (H9/IIIB strain); [5]) [nM]	IC50 (HIV-1 (H9/IIIB strain); [6]) [nM]	IC50 (HIV-1 (H9/IIIB strain); [7]) [nM]
54.8	CC(C)OC(=O)[C@H](C)CNP(=O)(CO[C@H](C)Cn1cnc2c(N)ncnc21)N[C@@H](C)C(=O)OC(C)C (single isomer, unassigned) [Example 10A]	–	–	10.6	97.2	–	–
76.4	CC(C)OC(=O)[C@@H](C)CNP(=O)(CO[C@H](C)Cn1cnc2c(N)ncnc21)N[C@@H](C)C(=O)OC1CCCC1 (single isomer, unassigned) [Example 11B]	–	–	20.9	68.4	–	–
37.7	CC(C)OC(=O)[C@@H](C)CNP(=O)(CO[C@H](C)Cn1cnc2c(N)ncnc21)N[C@@H](C)C(=O)OC1CCC1 (single isomer, unassigned) [Example 12B]	–	–	20.9	63.2	–	–
38.7	CC(C)OC(=O)[C@@H](C)CNP(=O)(CO[C@H](C)Cn1cnc2c(N)ncnc21)N[C@@H](C)C(=O)OC1CCCCC1 (single isomer, unassigned) [Example 13A]	–	–	8.7	56.4	–	–
38.3	CC(C)COC(=O)[C@H](C)NP(=O)(CO[C@H](C)Cn1cnc2c(N)ncnc21)NC[C@H](C)C(=O)OC(C)C (single isomer, unassigned) [Example 14A]	–	–	–	–	16.6	70.2
60.6	CC(C)COC(=O)[C@H](C)NP(=O)(CO[C@H](C)Cn1cnc2c(N)ncnc21)NC[C@H](C)C(=O)OC(C)C (single isomer, unassigned) [Example 14B]	–	–	15.7	51.6	–	–
65.8	CCCCOC(=O)[C@H](C)NP(=O)(CO[C@H](C)Cn1cnc2c(N)ncnc21)NC[C@H](C)C(=O)OC(C)C (single isomer, unassigned) [Example 15B]	–	–	11.7	79.4	–	–
56.2	CCCCCOC(=O)[C@H](C)NP(=O)(CO[C@H](C)Cn1cnc2c(N)ncnc21)NC[C@H](C)C(=O)OC(C)C (single isomer, unassigned) [Example 16B]	–	–	7.3	28.3	–	–
100	CC(C)OC(=O)C[C@H](C)NP(=O)(CO[C@H](C)Cn1cnc2c(N)ncnc21)N[C@H](C)C(=O)OC1CCC1 (single isomer, unassigned) [Example 19A]	–	–	51.2	195	–	–
99.3	CC(C)OC(=O)[C@@H](C)CNP(=O)(CO[C@H](C)Cn1cnc2c(N)ncnc21)N[C@H](C)C(=O)OC1CCC1 (single isomer, unassigned) [Example 20B]	–	–	112	432	–	–
99.2	CC(C)OC(=O)[C@@H](C)CNP(=O)(CO[C@H](C)Cn1cnc2c(N)ncnc21)N[C@H](C)C(=O)OC1CCCC1 (single isomer, unassigned) [Example 22B]	–	–	83.8	291	–	–
101	CC(C)OC(=O)CCNP(=O)(CO[C@H](C)Cn1cnc2c(N)ncnc21)N[C@H](C)C(=O)OC1CCC1 (single isomer, unassigned) [Example 23B]	–	–	121	488	–	–
